# Values quoted from earlier work, collected in patent US7671051B2, “Inhibitors of 11-β-hydroxy steroid dehydrogenase type 1” (Biovitrum AB, priority 2001, dated 2010).
# Tested on: bone nodule formation
smiles,measurement,value
CC1(C)[C@@H](OC(=O)CCC(=O)O)CC[C@]2(C)[C@H]3C(=O)C=C4[C@@H]5C[C@@](C)(C(=O)O)CC[C@]5(C)CC[C@@]4(C)[C@]3(C)CC[C@@H]12 [carbenoxolone],negative effect (of glucocorticoid) on bone nodule formation,blocked
